Reference: patent publication US20250381242A1 (INVAIO SCIENCES, INC., priority 2024, published 2025)
Positions of bridges follow the written chain, without caps; N, C: chain ends. Residues, ends and D or L forms follow the SMILES beside them. No end group written: not given here.

What was measured:
[1] = tested on: E. amylovora; settings: 24 h, 10 μM
[2] = tested on: A. tumefaciens; settings: 24 h, 10 μM
[3] = tested on: E. coli; assay: Bacterial growth inhibition by OD600 absorbance, E. coli; format: cell-based, E. coli (DH5-alpha); settings: peptide 10 μM, 24 hours at 37° C., OD 600 nm
Experimental: (§1) Antimicrobial activity of antimicrobial peptides was tested against the agricultural microbial pests A. tumefaciens, E. amylovora, E. coli, and X. citri, using OD absorbance measurement to detect bacterial growth.
(§2) Antimicrobial peptides were synthesized using solid phase peptide synthesis method and resuspended in 10% DMSO to a 1 mM stock concentration. The stock solution was aliquoted in cryovials and stored at −80° C.
(§3) An aliquot of 198 μl of the bacterial culture was added to each well in a 96-well plate and 2 μl of a 1 mM peptide stock solution was added to each well, for a final treatment concentration of 10 μM of a given peptide. Media only wells were included to control for contamination. The positive controls were 50 μg/ml oxytetracycline hydrochloride and 500 μg/ml streptomycin sulfate. A 0.1% DMSO treatment was included as a negative control.
(§4) An initial absorbance reading of the bacterial suspensions was taken at 600 nm. Then, the bacteria were grown in an incubator at 30° C. (A. tumefaciens, E. amylovora, X. citri) or 37° C. (E. coli) for 24 hours, after which the final absorbance reading was measured. Using the initial and final absorbance reading compared to negative and positive controls, the percent inhibition of the bacterial strain by given peptide treatment was determined.

[4] = tested on: X. citri; assay: Bacterial growth inhibition by OD600 absorbance, X. citri; format: cell-based, X. citri subsp. citri (ATCC 49118); settings: peptide 10 μM, 24 hours at 30° C., OD 600 nm
Experimental: as §1, §2, §3, §4

Row | Compound | growth inhibition, E. amylovora [1] [%] | growth inhibition, A. tumefaciens [2] [%] | growth inhibition, E. coli [3] [%] | growth inhibition, X. citri [4] [%]
1 | C[C@@H](O)[C@H](NC(=O)[C@H](CS)NC(=O)[C@@H](N)Cc1c[nH]c2ccccc12)C(=O)N[C@@H](Cc1c[nH]c2ccccc12)C(=O)N[C@@H](CCCCN)C(=O)NCC(=O)N[C@@H](CCC(N)=O)C(=O)N1CCC[C@H]1C(=O)N[C@@H](CS)C(=O)N[C@@H](Cc1c[nH]c2ccccc12)C(=O)O [compound 3] (H-WCTWKGQPCW-OH; N-terminus and C-terminus assumed) | <90 | <90 | – | –
2 | CC[C@H](C)[C@H](NC(=O)[C@H](CO)NC(=O)[C@H](CC(N)=O)NC(=O)[C@H](CC(C)C)NC(=O)[C@H](Cc1ccc(O)cc1)NC(=O)[C@H](CCCCN)NC(=O)[C@H](CCCCN)NC(=O)[C@@H](NC(=O)[C@H](C)NC(=O)[C@H](CCSC)NC(=O)[C@H](CCC(N)=O)NC(=O)[C@H](CCCCN)NC(=O)[C@H](CCCNC(=N)N)NC(=O)[C@H](CC(C)C)NC(=O)[C@H](CCCNC(=N)N)NC(=O)[C@@H](NC(=O)[C@H](Cc1ccc(O)cc1)NC(=O)[C@H](CC(N)=O)NC(=O)[C@H](CC(=O)O)NC(=O)[C@@H](NC(=O)[C@H](Cc1ccccc1)NC(=O)[C@@H](NC(=O)[C@H](C)NC(=O)[C@H](CC(=O)O)NC(=O)[C@H](CO)NC(=O)[C@@H](N)Cc1c[nH]cn1)C(C)C)[C@@H](C)O)[C@@H](C)O)C(C)C)C(=O)N[C@@H](CC(C)C)C(=O)N[C@@H](CC(N)=O)C(=O)O [compound 12] | <90 | <90 | <90 | 93.86
3 | CC[C@H](C)[C@H](NC(=O)CNC(=O)[C@@H]1CCCN1C(=O)CNC(=O)[C@H](CC(C)C)NC(=O)[C@H](CC(N)=O)NC(=O)[C@H](C)NC(=O)[C@H](Cc1ccccc1)NC(=O)[C@H](CC(N)=O)NC(=O)[C@H](C)NC(=O)[C@H](CCCNC(=N)N)NC(=O)[C@H](Cc1ccccc1)NC(=O)[C@H](C)NC(=O)[C@@H](NC(=O)[C@H](CCCNC(=N)N)NC(=O)[C@H](Cc1c[nH]c2ccccc12)NC(=O)[C@H](Cc1ccc(O)cc1)NC(=O)[C@H](CC(=O)O)NC(=O)[C@H](C)NC(=O)[C@H](CC(C)C)NC(=O)CN)[C@@H](C)O)C(=O)N[C@@H](CCCNC(=N)N)C(=O)N[C@@H](CS)C(=O)N[C@@H](CCCCN)C(=O)N[C@@H](CO)C(=O)N[C@@H](C)C(=O)N[C@@H](CCCNC(=N)N)C(=O)N[C@@H](CS)C(=O)O [compound 18] (H-GLADYWRTAFRANFANLGPGIRCKSARC-OH; N-terminus and C-terminus assumed) | <90 | <90 | – | –
4 | CC(C)C[C@H](NC(=O)[C@H](CCCCN)NC(=O)[C@H](C)NC(=O)[C@H](CC(C)C)NC(=O)[C@H](CCCCN)NC(=O)[C@H](CCCCN)NC(=O)[C@H](C)NC(=O)[C@H](CC(C)C)NC(=O)[C@H](CCCCN)NC(=O)[C@H](C)NC(=O)[C@H](CC(C)C)NC(=O)[C@H](CCCCN)NC(=O)[C@H](Cc1c[nH]cn1)NC(=O)[C@H](C)NC(=O)[C@@H](N)CC(=O)O)C(=O)N[C@@H](C)C(=O)N[C@@H](CCCCN)C(=O)O [compound 97] | <90 | <90 | <90 | <90
5 | AAKAWLKLWAKAA [compound 135] | <90 | <90 | <90 | <90
6 | AKLKAYPLKAKLYP [compound 114] | <90 | <90 | <90 | <90
7 | AKRLKKLAKKIWKWK [compound 92] | 99.93 | 99.87 | <90 | <90
8 | ALKSLLATLSKAKKKKLKTLLAALSK [compound 31] | 100.00 | 100.00 | <90 | 100.00
9 | ALKSLLKTLSKAKAAKLKTLLKALSK [compound 30] | 100.00 | 100.00 | 98.52 | 100.00
10 | ALWFTMLKKLGTMALHAGKAALGAAANTISQGTQ [compound 9] | 91.75 | 99.90 | <90 | 100.00
11 | ALWKKLLKKLLKSAKKLG [compound 77] | 100.00 | 100.00 | 100.00 | 100.00
12 | AMWKDVLKKIGTVALHAGKAALGAVADTISQ [compound 17] | <90 | 100.00 | <90 | 100.00
13 | DCLSGRYKGPCAVWDNETCRRVCKEEGRSSGHCSPSLKCWCEGC (disulfide 2-44, 11-33, 19-39, 23-41) [compound 145] | <90 | <90 | – | –
14 | DLWNSIKDMAAAAGRAALNAVTGMVNQ [compound 29] | <90 | <90 | <90 | <90
15 | FAKKLAKKLKKLAKKLAK [compound 80] | 100.00 | 98.82 | <90 | <90
16 | FFHHIFRGIVHVGKTKHRLVTG [compound 37] | <90 | <90 | <90 | <90
17 | FFHHIKRGIKHVGKTIHRLVTG [compound 38] | 100.00 | <90 | <90 | 100.00

Row | Compound | growth inhibition, E. amylovora [1] [%] | growth inhibition, A. tumefaciens [2] [%] | growth inhibition, E. coli [3] [%] | growth inhibition, X. citri [4] [%]
18 | FKKLKKLFKKILKLK [compound 95] | 100.00 | 99.80 | <90 | <90
19 | FKKLKKLFSKLWNWK [compound 84] | 100.00 | 100.00 | 96.39 | <90
20 | FKVQNQHGQVVKIFHH [compound 89] | <90 | <90 | <90 | <90
21 | FPFLKLSLKIPKSAIKSAIKRL [compound 1] | <90 | <90 | <90 | <90
22 | FQWQRNMRKVR [compound 124] | <90 | <90 | <90 | <90
23 | FRIRVRVAKKFGKAFVGEIM [compound 64] | <90 | <90 | <90 | <90
24 | GFWGKLWKPVKKAI [compound 107] | <90 | <90 | <90 | <90
25 | GIKFFLKKLKKHI [compound 115] | <90 | <90 | <90 | 100.00
26 | GLWSKIKEVGKEAAKAAAKAAGKAALGAVSEAV [compound 16] | 100.00 | 100.00 | 100.00 | 100.00
27 | GMWSKILGHLIR [compound 137] | 100.00 | <90 | <90 | <90
28 | GWASSIGSILGKFAKGGAQAFLQPK [compound 44] | <90 | <90 | <90 | <90
29 | GWGDTFLKTMAKIAKVGPKLLHS [compound 48] | <90 | <90 | <90 | <90
30 | GWRTLLKKAEVKTVGKLALKHYL [compound 32] | <90 | <90 | <90 | <90
31 | IGKLFKRIVQRILKFLRNL [compound 63] | <90 | <90 | 97.14 | <90
32 | ILKKIWKPIKKLF [compound 109] | <90 | <90 | <90 | <90
33 | ILKKLLKKVKSI [compound 136] | <90 | <90 | <90 | <90
